This assay deals with SFO^nNOS neurons. In words: Salt/Mannitol loading with fiber photometry of SFO^nNOS/MnPO^nNOS neurons and drinking. Format: in vivo, mice. Here is the method:
Salt/Mannitol Loading Experiments: 150 μL/300 μL of 2 M NaCl or 300 μL of 2 M Mannitol was injected intraperitoneally at the end of the acclimatization period. For FIGS. 1P-T and FIGS. 7P-S, CNO or vehicle (water) was injected 10 min prior to NaCl/Mannitol injection. We measured bulk fluorescence signals using fiber photometry as previously described^[26]. Briefly, 490 nm and 405 nm LEDs ([…] and […]) were collimated and delivered to the brain. The light intensity was kept less than 100 μW during all recordings. The fluorescence signal was then focused onto a femtowatt photoreceiver (Newport, Model 2151). The modulation and demodulation were done with an RP2.1 real time processor (Tucker-Davis Technologies) running custom software. The licks from the lickometer were simultaneously recorded as real-time TTL signals to the RP2.1. Fluorescence changes were analyzed using custom MATLAB (MathWorks) code as described previously^[26]. Data were extracted and subjected to a low pass filter at 1.8 Hz. A linear function was used to scale up the 405 nm channel signal to the 490 nm channel signal to get the fitted 405 nm signal. The resultant ΔF/F was calculated as (raw 490 nm signal-fitted 405 nm signal)/(fitted 405 nm signal). For brief access tests, the Area Under Curve (ΣΔFduring) was quantified by integrating the fluorescence signals during the bout. For all bouts, the mean fluorescence for 30 s prior to the first lick was calculated and subtracted from the entire session. ΔF changes (ΔFpost-ΔFpre) were calculated by subtracting the mean fluorescence signal during the 2-s period before the first lick from the mean signal during the 2-s at 1 min after the bout. For displaying traces, the fluorescence data was time-binned by a factor of 2.5 times the sampling frequency and down-sampled to 1 Hz. For long-term tests, the Area Under Curve was calculated for 2.5 min after the start of the bout. […] For […]), the first bout at the start of the session and the last bout within 10 min of access were used. The AUC for the PSTHs were calculated during the first or the last 15 seconds.

[1] abbreviates: GCaMP6s fiber photometry, MnPO^nNOS inhibited by CNO.

Each structure is given as a SMILES string. Entries after “also recorded” stand apart in the source; their conditions may differ.

In the case of `C[N+]1([O-])CCN(C2=Nc3cc(Cl)ccc3Nc3ccccc32)CC1` [CNO, clozapine-N-oxide], under setting [1], the “calcium increases / activity of SFO^nNOS neurons by mannitol-induced osmotic stress” value is listed as “unaffected; also recorded: without changing the activity” and the “calcium increases in SFO^nNOS neurons by NaCl-induced osmotic stress” value was “unaffected”. The “drinking behavior after Mannitol injection” value (hM4Di in MnPO^nNOS, CNO 10 min prior to intraperitoneal Mannitol) was “intensely suppressed drinking responses; also recorded: drastically suppressed drinking behavior”. For the same molecule, where the note is “hM4Di in MnPO^nNOS, CNO 10 min prior to intraperitoneal NaCl”, the “drinking behavior after NaCl injection” value is reported as “intensely suppressed drinking responses; also recorded: drastically suppressed drinking behavior”.

The values above are taken from patent US10960084B2, “Modulation of fluid intake” (California Institute of Technology, priority 2018, dated 2021).
